*1 amine or outer side, *2 acyl side, *3 side chain or, on linkers, in order; H or OH if unused. Where a SMILES comes first, the peptide text is derived from it. Side-chain parts run from the residue outwards. γGlu = O=C(O)[C@H](CCC(=O)[*:2])N[*:1]
Biological target: T1, glucagon receptor (Homo sapiens, UniProt P47871)
T1 construct: expressed in transfected cells
Assay: Assay (I) Glucagon activity (cAMP biosensor, FLIPR)
Assay type: cell-based
Details: HEK-293 cells with cloned glucagon receptor and cAMP biosensor; end point after 6 minutes
Procedure: The glucagon receptor was cloned into HEK-293 cells having a membrane bound cAMP biosensor (ACTOne™). The cells (14000 per well) were incubated (37° C., 5% CO2) overnight in 384-well plates. Next day the cells were loaded with a calcium responsive dye that only distributed into the cytoplasm. Probenecid, an inhibitor of the organic anion transporter, was added to prevent the dye from leaving the cell. A PDE inhibitor was added to prevent formatted cAMP from being degraded, The plates were placed into a […] and the glucagon analogues were added. End point data were collected after 6 minutes. An increase in intracellular cAMP was proportional to an increased in calcium concentrations in the cytoplasm. When calcium was bound the dry a fluorescence signal was generated. EC50-values were calculated in Prism5.

T1 sequence (P47871 26-477): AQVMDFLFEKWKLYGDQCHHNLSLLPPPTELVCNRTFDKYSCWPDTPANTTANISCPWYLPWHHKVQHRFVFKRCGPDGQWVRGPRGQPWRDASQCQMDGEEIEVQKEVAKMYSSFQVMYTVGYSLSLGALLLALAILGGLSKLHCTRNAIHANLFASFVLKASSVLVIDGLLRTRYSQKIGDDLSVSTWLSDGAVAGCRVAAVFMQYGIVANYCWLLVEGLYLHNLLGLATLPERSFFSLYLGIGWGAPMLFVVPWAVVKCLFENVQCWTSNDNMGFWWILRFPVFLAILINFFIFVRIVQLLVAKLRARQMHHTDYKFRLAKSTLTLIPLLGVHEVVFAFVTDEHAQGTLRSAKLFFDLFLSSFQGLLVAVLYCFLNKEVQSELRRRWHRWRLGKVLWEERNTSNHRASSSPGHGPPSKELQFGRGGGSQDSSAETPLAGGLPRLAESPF

Row | Compound | EC50
1 | CC(=O)N[C@@H](CCC(=O)N[C@@H](CCC(=O)N[C@@H](CCC(=O)N[C@@H](CCC(=O)NCCCC[C@H](NC(=O)[C@@H](NC(=O)[C@H](Cc1ccccc1)NC(=O)[C@H](CC(=O)O)NC(=O)[C@H](CCC(N)=O)NC(=O)[C@H](C)NC(=O)[C@H](CCCNC(=N)N)NC(=O)[C@H](CCCNC(=N)N)NC(=O)[C@H](CO)NC(=O)[C@H](CC(=O)O)NC(=O)[C@H](CC(C)C)NC(=O)[C@H](Cc1ccc(O)cc1)NC(=O)[C@H](CCCCN)NC(=O)[C@H](CO)NC(=O)[C@H](Cc1ccc(O)cc1)NC(=O)[C@H](CC(=O)O)NC(=O)[C@H](CO)NC(=O)[C@@H](NC(=O)[C@H](Cc1ccccc1)NC(=O)[C@@H](NC(=O)CNC(=O)[C@H](Cc1c[nH]cn1)NC(=O)[C@H](CO)NC(=O)[C@@H](N)Cc1c[nH]cn1)[C@@H](C)O)[C@@H](C)O)C(C)C)C(=O)N[C@@H](Cc1c[nH]c2ccccc12)C(=O)N[C@@H](CC(C)C)C(=O)N[C@@H](CC(C)C)C(=O)N[C@@H](CC(N)=O)C(=O)N[C@H](C(=O)O)[C@@H](C)O)C(=O)O)C(=O)O)C(=O)O)C(=O)O [Example 19, N^ε24-[(4S)-4-[[(4S)-4-[[(4S)-4-[[(4S)-4-acetamido-4-carboxybutanoyl]amino]-4-carboxybutanoyl]amino]-4-carboxybutanoyl]amino]-4-carboxybutanoyl]-[His3,Lys24,Leu27]-Glucagon] | 0.0145 nM
2 | CC(=O)N[C@@H](CCC(=O)N[C@@H](CCC(=O)N[C@@H](CCC(=O)N[C@@H](CCC(=O)NCCCC[C@H](NC(=O)[C@@H](NC(=O)[C@H](Cc1ccccc1)NC(=O)[C@H](CC(=O)O)NC(=O)[C@H](CCC(N)=O)NC(=O)[C@H](C)NC(=O)[C@H](CCCNC(=N)N)NC(=O)[C@H](CCCNC(=N)N)NC(=O)[C@H](CO)NC(=O)[C@H](CCC(=O)O)NC(=O)[C@H](CC(C)C)NC(=O)[C@H](Cc1ccc(O)cc1)NC(=O)[C@H](CCCCN)NC(=O)[C@H](CO)NC(=O)[C@H](Cc1ccc(O)cc1)NC(=O)[C@H](CC(=O)O)NC(=O)[C@H](CO)NC(=O)[C@@H](NC(=O)[C@H](Cc1ccccc1)NC(=O)[C@@H](NC(=O)CNC(=O)[C@H](CCC(N)=O)NC(=O)[C@H](CO)NC(=O)[C@@H](N)Cc1c[nH]cn1)[C@@H](C)O)[C@@H](C)O)C(C)C)C(=O)N[C@@H](Cc1c[nH]c2ccccc12)C(=O)N[C@@H](CC(C)C)C(=O)N[C@@H](CC(C)C)C(=O)N[C@@H](CO)C(=O)N[C@H](C(=O)O)[C@@H](C)O)C(=O)O)C(=O)O)C(=O)O)C(=O)O [Example 23, N^ε24-[(4S)-4-[[(4S)-4-[[(4S)-4-[[(4S)-4-acetamido-4-carboxybutanoyl]amino]-4-carboxybutanoyl]amino]-4-carboxybutanoyl]amino]-4-carboxybutanoyl]-[Glu15,Lys24,Leu27,Ser28]-Glucagon] | 0.0105 nM
3 | CC(=O)N[C@@H](CCC(=O)N[C@@H](CCC(=O)N[C@@H](CCC(=O)N[C@@H](CCC(=O)NCCCC[C@H](NC(=O)[C@@H](NC(=O)[C@H](Cc1ccccc1)NC(=O)[C@H](CC(=O)O)NC(=O)[C@H](CCC(N)=O)NC(=O)[C@H](C)NC(=O)[C@H](CCCNC(=N)N)NC(=O)[C@H](CCCNC(=N)N)NC(=O)[C@@H](NC(=O)[C@H](CC(=O)O)NC(=O)[C@H](CC(C)C)NC(=O)[C@H](Cc1ccc(O)cc1)NC(=O)[C@H](CCCCN)NC(=O)[C@H](CO)NC(=O)[C@H](Cc1ccc(O)cc1)NC(=O)[C@H](CC(=O)O)NC(=O)[C@H](CO)NC(=O)[C@@H](NC(=O)[C@H](Cc1ccccc1)NC(=O)[C@@H](NC(=O)CNC(=O)[C@H](CCC(N)=O)NC(=O)[C@H](CO)NC(=O)[C@@H](N)Cc1c[nH]cn1)[C@@H](C)O)[C@@H](C)O)[C@@H](C)O)C(C)C)C(=O)N[C@@H](Cc1c[nH]c2ccccc12)C(=O)N[C@@H](CC(C)C)C(=O)N[C@@H](CC(C)C)C(=O)N[C@@H](CO)C(=O)N[C@H](C(=O)O)[C@@H](C)O)C(=O)O)C(=O)O)C(=O)O)C(=O)O [Example 30] | 0.0065 nM

The remaining molecules from weak to strong by EC50, led by results:

Row | EC50 | Compound
4 | 0.012 nM | CC(=O)N[C@@H](CCC(=O)N[C@@H](CCC(=O)N[C@@H](CCC(=O)N[C@@H](CCC(=O)NCCCC[C@H](NC(=O)[C@@H](NC(=O)[C@H](Cc1ccccc1)NC(=O)[C@H](CC(=O)O)NC(=O)[C@H](CCC(N)=O)NC(=O)[C@H](C)NC(=O)[C@H](CCCNC(=N)N)NC(=O)[C@H](CCCNC(=N)N)NC(=O)[C@@H](NC(=O)[C@H](CC(=O)O)NC(=O)[C@H](CC(C)C)NC(=O)[C@H](Cc1ccc(O)cc1)NC(=O)[C@H](CCCNC(=N)N)NC(=O)[C@H](CO)NC(=O)[C@H](Cc1ccc(O)cc1)NC(=O)[C@H](CC(=O)O)NC(=O)[C@H](CO)NC(=O)[C@@H](NC(=O)[C@H](Cc1ccccc1)NC(=O)[C@@H](NC(=O)CNC(=O)[C@H](CCC(N)=O)NC(=O)[C@H](CO)NC(=O)[C@@H](N)Cc1c[nH]cn1)[C@@H](C)O)[C@@H](C)O)[C@@H](C)O)C(C)C)C(=O)N[C@@H](Cc1c[nH]c2ccccc12)C(=O)N[C@@H](CC(C)C)C(=O)N[C@@H](CC(C)C)C(=O)N[C@@H](CO)C(=O)N[C@H](C(=O)N1CCC[C@H]1C(=O)O)[C@@H](C)O)C(=O)O)C(=O)O)C(=O)O)C(=O)O [Example 26] (H-HSQGTFTSDYSRYLDTRRAQDFVK([γGlu-γGlu-γGlu-γGlu-Ac])WLLSTP-OH)
5 | 0.0055 nM | CC(=O)N[C@@H](CCC(=O)N[C@@H](CCC(=O)N[C@@H](CCC(=O)N[C@@H](CCC(=O)NCCCC[C@H](NC(=O)[C@@H](NC(=O)[C@H](Cc1ccccc1)NC(=O)[C@H](CCC(=O)O)NC(=O)[C@H](CCC(N)=O)NC(=O)[C@H](C)NC(=O)[C@H](CCCNC(=N)N)NC(=O)[C@H](CCCNC(=N)N)NC(=O)[C@H](CO)NC(=O)[C@H](CCC(=O)O)NC(=O)[C@H](CC(C)C)NC(=O)[C@H](Cc1ccc(O)cc1)NC(=O)[C@H](CCCCN)NC(=O)[C@H](CO)NC(=O)[C@H](Cc1ccc(O)cc1)NC(=O)[C@H](CC(=O)O)NC(=O)[C@H](CO)NC(=O)[C@@H](NC(=O)[C@H](Cc1ccccc1)NC(=O)[C@@H](NC(=O)CNC(=O)[C@H](CCC(N)=O)NC(=O)[C@H](CO)NC(=O)[C@@H](N)Cc1c[nH]cn1)[C@@H](C)O)[C@@H](C)O)C(C)C)C(=O)N[C@@H](Cc1c[nH]c2ccccc12)C(=O)N[C@@H](CC(C)C)C(=O)N[C@@H](CC(C)C)C(=O)N[C@@H](CO)C(=O)N[C@H](C(=O)O)[C@@H](C)O)C(=O)O)C(=O)O)C(=O)O)C(=O)O [Example 22, N^ε24-[(4S)-4-[[(4S)-4-[[(4S)-4-[[(4S)-4-acetamido-4-carboxybutanoyl]amino]-4-carboxybutanoyl]amino]-4-carboxybutanoyl]amino]-4-carboxybutanoyl]-[Glu15,Glu21,Lys24,Leu27,Ser28]-Glucagon] (H-HSQGTFTSDYSKYLESRRAQEFVK([γGlu-γGlu-γGlu-γGlu-Ac])WLLST-OH)
